Values of other authors in patent US10864334B2, “Nasal delivery” (OptiNose AS, priority 2006, dated 2020).
Where two headings read alike, the source gives them in different places.

Assays:
[1] = in vivo
[2] = intranasal; aqueous spray versus nasal drops; systemic bio-availability

| Compound | bio-availability of the nasal spray formulation relative to the nasal drop formulation [1] | bio-availability of the nasal spray formulation relative to the nasal drop formulation [2] |
| --- | --- | --- |
| NC(=O)CC[C@@H]1NC(=O)[C@H](Cc2ccccc2)NC(=O)[C@H](Cc2ccc(O)cc2)NC(=O)CCSSC[C@@H](C(=O)N2CCC[C@H]2C(=O)N[C@H](CCCN=C(N)N)C(=O)NCC(N)=O)NC(=O)[C@H](CC(N)=O)NC1=O [desmopressin] | two to three times higher | – |
| CCC(=O)O[C@]1(C(=O)SCF)[C@H](C)C[C@H]2[C@@H]3C[C@H](F)C4=CC(=O)C=C[C@]4(C)[C@@]3(F)[C@@H](O)C[C@@]21C [fluticasone propionate] | – | about eight times higher |
